Assay results as given in patent US11890291B2, “Aqueous composition with water insoluble vitamins” (Innova Agri Bio Park Private Limited, priority 2018, dated 2024).

How the values were obtained:
in vivo = details: Wistar, rat, po, 5 mg/kg
Experimental: Test substance (Vitamin D3 fortified aqueous composition) and standard drug cholecalciferol (Vitamin D3) was administered by oral route at the dose of 5 mg/kg body weight to Rats as shown in Table 8.
After oral administration of the test substance and the standard drug, 500 μL of blood sample was collected in EDTA containing tubes at different time intervals of 0, ½, 1, 2, 4, 8, 12, 24 and 48 hours.
The plasma was separated from blood samples for bioanalysis and pharmacokinetic profiling was performed using LC-MS/MS method for the quantification of vitamin D3 in Rat plasma.
The area under the plasma drug concentration-time curve (AUC) was calculated which reflects the actual body exposure to drug after administration of a dose of the drug.

[1] = Volume of distribution test; format: in vivo, Wistar rats; details: oral 5 mg/kg
Experimental: The volume of distribution (Vd) test was done to check the ability of Vitamin D3 nanogels/nanoparticles to distribute through different body fluid compartments. Apparent volume of distribution (Vd) was calculated by dividing the amount of the nanogel/nanoparticles and the standard drug administered on the plasma concentration as shown in Table 11.

Q: For C=C1CC[C@H](O)C/C1=C/C=C1\CCC[C@]2(C)[C@@H]([C@H](C)CCCC(C)C)CC[C@@H]12 [Standard vitamin D3, cholecalciferol], which AUC at 0 h (in vivo) is on record?
A: 20 ng·h/mL

Q: And the AUC at 0.5 h (in vivo)?
A: 43.3 ng·h/mL

Q: And the AUC at 1 h (in vivo)?
A: 41.7 ng·h/mL

Q: And the AUC at 2 h (in vivo)?
A: 106 ng·h/mL

Q: And the AUC at 4 h (in vivo)?
A: 289 ng·h/mL

Q: And the AUC at 8 h (in vivo)?
A: 1180 ng·h/mL

Q: And the AUC at 12 h (in vivo)?
A: 3010 ng·h/mL

Q: And the AUC at 24 h (in vivo)?
A: 4060 ng·h/mL

Q: What about the AUC at 48 h (in vivo) of the same molecule?
A: 2910 ng·h/mL

Q: What about the AUC(0-t) (in vivo) of the same molecule?
A: 11700 ng·h/mL

Q: What about the concentration at 0 h (in vivo) of the same molecule?
A: 1.66 ± 1.66 ng/mL

Q: What about the concentration at 0.5 h (in vivo) of the same molecule?
A: 4.16 ± 2.17 ng/mL

Q: And the concentration at 1 h (in vivo)?
A: 3.7 ± 1.98 ng/mL

Q: What about the concentration at 2 h (in vivo) of the same molecule?
A: 13.4 ± 4.87 ng/mL

Q: And the concentration at 4 h (in vivo)?
A: 68.8 ± 22.5 ng/mL

Q: And the concentration at 8 h (in vivo)?
A: 284 ± 82 ng/mL

Q: And the concentration at 12 h (in vivo)?
A: 767 ± 92.5 ng/mL

Q: What about the concentration at 24 h (in vivo) of the same molecule?
A: 1040 ± 123 ng/mL

Q: What about the concentration at 48 h (in vivo) of the same molecule?
A: 744 ± 33.6 ng/mL

Q: And the “Volume of distribution (Vd)” value ([1]; 0 Hr)?
A: 333.3 ± 333.3 L/kg

Q: What about the “Volume of distribution (Vd)” value ([1]; 0.5 Hr) of the same molecule?
A: 548.8 ± 285.8 L/kg

Q: And the “Volume of distribution (Vd)” value ([1]; 1 Hr)?
A: 632.7 ± 339.6 L/kg

Q: And the “Volume of distribution (Vd)” value ([1]; 2 Hr)?
A: 465.9 ± 129.3 L/kg

Q: What about the “Volume of distribution (Vd)” value ([1]; 4 Hr) of the same molecule?
A: 96.22 ± 25.47 L/kg

Q: What about the “Volume of distribution (Vd)” value ([1]; 8 Hr) of the same molecule?
A: 20.25 ± 4.58 L/kg

Q: What about the “Volume of distribution (Vd)” value ([1]; 12 Hr) of the same molecule?
A: 6.73 ± 0.89 L/kg

Q: And the “Volume of distribution (Vd)” value ([1]; 24 Hr)?
A: 4.98 ± 0.67 L/kg

Q: What about the “Volume of distribution (Vd)” value ([1]; 48 Hr) of the same molecule?
A: 6.74 ± 0.31 L/kg
